Source: patent publication US20230374035A1, “RAS INHIBITORS” (Revolution Medicines, Inc., priority 2019, published 2023)

Key:
NCI-H358 (K-Ras G12C) = assay: CellTiter-Glo Cell Viability Assay; format: cell-based; conditions: Homo sapiens, NCI-H358, 120 h; H358, 5-day treatment
Experimental: Determination of Cell Viability in RAS Mutant Cancer Cell Lines
Protocol: CellTiter-Glo® Cell Viability Assay
Note—The following protocol describes a procedure for monitoring cell viability of K-Ras mutant cancer cell lines in response to a compound of the invention. Other RAS isoforms may be employed, though the number of cells to be seeded will vary based on cell line used.
Test compounds (132.5 nl) were directly dispensed into the assay plates containing cells. […] On day 5, assay plates and their contents were equilibrated to room temperature for approximately 30 minutes. […] Luminescence was measured using the PerkinElmer Enspire. Data were normalized by the following: (Sample signal/Avg. DMSO)*100. The data were fit using a four-parameter logistic fit.

NRAS Q61K = NRAS Q61K (Homo sapiens, UniProt P01111+P62937, Q61K); assay: Disruption of BRAF RBD interaction with Ras (FRET / MOA assay); format: biochemical; conditions: read-out: NRAS Q61K FRET data IC50
NRAS Q61K, sequence (P01111 whole entry Q61K): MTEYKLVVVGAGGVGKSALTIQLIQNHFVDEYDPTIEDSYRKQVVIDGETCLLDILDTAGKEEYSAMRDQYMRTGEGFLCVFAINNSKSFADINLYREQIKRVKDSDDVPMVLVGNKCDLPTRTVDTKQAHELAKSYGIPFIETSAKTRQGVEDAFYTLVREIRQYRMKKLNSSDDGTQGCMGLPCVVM
NRAS Q61K, sequence (P62937 whole entry): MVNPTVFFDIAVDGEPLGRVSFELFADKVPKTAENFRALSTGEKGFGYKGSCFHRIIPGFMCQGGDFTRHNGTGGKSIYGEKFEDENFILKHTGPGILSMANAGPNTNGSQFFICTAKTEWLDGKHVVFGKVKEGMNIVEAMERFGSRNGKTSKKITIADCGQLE
Experimental: (§1) Compound is present in plate wells as a 10-point 3-fold dilution series starting at a final concentration of 30 μM. […] Compounds that facilitate disruption of a Ras:RAF complex are identified as those eliciting a decrease in the TR-FRET ratio relative to DMSO control wells.
(§2) Note—The following protocol describes a procedure for monitoring disruption of K-Ras G12C (GMP-PNP) binding to BRAF^RBD by a compound of the invention. This protocol may also be executed substituting other Ras proteins or nucleotides.
(§3) The purpose of this biochemical assay was to measure the ability of test compounds to facilitate ternary complex formation between a nucleotide-loaded K-Ras isoform and Cyclophilin A; the resulting ternary complex disrupts binding to a BRAF^RBD construct, inhibiting K-Ras signaling through a RAF effector. Data is reported as IC50 values.
(§4) Compound was present in plate wells as a 10-point 3-fold dilution series starting at a final concentration of 30 μM. […] Compounds that facilitate disruption of a K-Ras:RAF complex were identified as those eliciting a decrease in the TR-FRET ratio relative to DMSO control wells.

NRAS Q61R = NRAS Q61R (Homo sapiens, UniProt P01111+P62937, Q61R); assay: as above; format: biochemical; conditions: read-out: NRAS Q61R FRET data IC50
NRAS Q61R, sequence (P01111 whole entry Q61R): as the sequence (P01111 whole entry Q61K) above, with K61R counted along it
NRAS Q61R, sequence (P62937 whole entry): as the sequence (P62937 whole entry) above
Experimental: as §1, §2, §3, §4

| SMILES | IC50 (NCI-H358 (K-Ras G12C)) [nM] | IC50 (NRAS Q61K) [nM] | IC50 (NRAS Q61R) [nM] |
| --- | --- | --- | --- |
| CCn1c(-c2cc(N3CCN(C)CC3)cnc2[C@H](C)OC)c2c3cc(ccc31)-c1csc(n1)C[C@H](NC(=O)[C@H](C(C)C)N(C)C(=O)[C@@H]1OCC[C@@H]1c1cccnc1)C(=O)N1CCC[C@H](N1)C(=O)OCC(C)(C)C2 (atropisomer, axis not shown) [Compound A490] | < 10 |  |  |
| CCn1c(-c2cccnc2[C@H](C)OC)c2c3cc(ccc31)-c1csc(n1)C[C@H](NC(=O)[C@H](C(C)C)N(C)C(=O)N1CC(S(=O)(=O)N(C)C)C1)C(=O)N1CCC[C@H](N1)C(=O)OCC(C)(C)C2 (atropisomer, axis not shown) [Compound A551] | < 10 | 10 to 100 |  |
| CCn1c(-c2cccnc2[C@H](C)OC)c2c3cc(ccc31)-c1csc(n1)C[C@H](NC(=O)[C@H](C(C)C)N(C)C(=O)N1CC(C(=O)N3CCOCC3)C1)C(=O)N1CCC[C@H](N1)C(=O)OCC(C)(C)C2 (atropisomer, axis not shown) [Compound A543] | < 10 | 10 to 100 |  |
| CCn1c(-c2cccnc2[C@H](C)OC)c2c3cc(ccc31)-c1csc(n1)C[C@H](NC(=O)[C@H](C(C)C)N(C)C(=O)N1CC([C@H](CO)OC)C1)C(=O)N1CCC[C@H](N1)C(=O)OCC(C)(C)C2 (atropisomer, axis not shown) [Compound A515] | < 10 | 10 to 100 |  |
| CCn1c(-c2cccnc2[C@H](C)OC)c2c3cc(ccc31)-c1cc(O)cc(c1)C[C@H](NC(=O)[C@H](C(C)C)N(C)C(=O)[C@@H]1OCC[C@@H]1c1ccccc1)C(=O)N1CCC[C@H](N1)C(=O)OCC(C)(C)C2 (atropisomer, axis not shown) [Compound A415] |  | 10 to 100 | 10 to 100 |
| CCn1c(-c2cccnc2[C@H](C)OC)c2c3cc(ccc31)-c1csc(n1)C[C@H](NC(=O)[C@H](C(C)C)N(C)C(=O)N1CCOC3(COC3)C1)C(=O)N1CCC[C@H](N1)C(=O)OCC(C)(C)C2 (atropisomer, axis not shown) [Compound A475] |  | 10 to 100 | 10 to 100 |
| CCn1c(-c2cccnc2[C@H](C)OC)c2c3cc(ccc31)-c1csc(n1)C[C@H](NC(=O)[C@H](C(C)C)N(C)C(=O)N1CCC(C(=O)C(F)(F)F)CC1)C(=O)C1CCC[C@H](N1)C(=O)OCC(C)(C)C2 [Compound A422] |  | 10 to 100 | 10 to 100 |
| CCn1c(-c2cccnc2[C@H](C)OC)c2c3cc(ccc31)-c1csc(n1)C[C@H](NC(=O)[C@H](C(C)C)N(C)C(=O)N1CC(N3CCOCC3)C1)C(=O)N1CCC[C@H](N1)C(=O)OCC(C)(C)C2 (atropisomer, axis not shown) [Compound A338] | < 10 |  |  |
| CCn1c(-c2cccnc2[C@H](C)OC)c2c3cc(ccc31)-c1cc(O)cc(c1)C[C@H](NC(=O)[C@H](C(C)C)N(C)C(=O)[C@@H]1OCC[C@H]1c1ccccc1)C(=O)N1CCC[C@H](N1)C(=O)OCC(C)(C)C2 (atropisomer, axis not shown) [Compound A584] |  | 10 to 100 | 10 to 100 |
| CCn1c(-c2cccnc2[C@H](C)OC)c2c3cc(ccc31)-c1csc(n1)C[C@H](NC(=O)[C@H](C(C)C)N(C)C(=O)N1CCO[C@H](CN(C)C)C1)C(=O)N1CCC[C@H](N1)C(=O)OCC(C)(C)C2 (atropisomer, axis not shown) [Compound A590] | < 10 | 10 to 100 |  |
| CCn1c(-c2cccnc2[C@H](C)OC)c2c3cc(ccc31)-c1csc(n1)C[C@H](NC(=O)[C@H](C(C)C)N(C)C(=O)N1C[C@H]3COC[C@H]3C1)C(=O)N1CCC[C@H](N1)C(=O)OCC(C)(C)C2 (atropisomer, axis not shown) [Compound A312] |  | 10 to 100 | 10 to 100 |
| CCn1c(-c2cccnc2[C@H](C)OC)c2c3cc(ccc31)-c1csc(n1)C[C@H](NC(=O)[C@H](C(C)C)N(C)C(=O)N1CC(C3COC3)C1)C(=O)N1CCC[C@H](N1)C(=O)OCC(C)(C)C2 (atropisomer, axis not shown) [Compound A298] | < 10 |  |  |
| CCn1c(-c2cc(N3CCN(C)CC3)cnc2[C@H](C)OC)c2c3cc(ccc31)-c1csc(n1)C[C@H](NC(=O)[C@H](C(C)C)N(C)C(=O)[C@H]1CCCS1(=O)=O)C(=O)N1CCC[C@H](N1)C(=O)OCC(C)(C)C2 (atropisomer, axis not shown) [Compound A439] | < 10 |  |  |
| CCn1c(-c2cccnc2[C@H](C)OC)c2c3cc(ccc31)-c1csc(n1)C[C@H](NC(=O)[C@H](C(C)C)N(C)C(=O)N1CCN3CCOCC3C1)C(=O)N1CCC[C@H](N1)C(=O)OCC(C)(C)C2 (some centres unmarked) [Compound A296] | < 10 |  |  |
| CCn1c(-c2cccnc2[C@H](C)OC)c2c3cc(ccc31)-c1cc(O)cc(c1)C[C@H](NC(=O)C1CCC3C1C3(F)F)C(=O)N1CCC[C@H](N1)C(=O)OCC(C)(C)C2 (some centres unmarked) [Compound A181] |  |  | > 10000 |
| CO[C@@H](C)c1ncccc1-c1c2c3cc(ccc3n1CC(F)(F)F)-c1csc(n1)C[C@H](NC(=O)[C@H](C(C)C)N(C)C(=O)N1CC(N(C)C)C1)C(=O)N1CCC[C@H](N1)C(=O)OCC(C)(C)C2 [Compound A303] | < 10 |  |  |
| CCn1c(-c2cccnc2[C@H](C)OC)c2c3cc(ccc31)-c1csc(n1)C[C@H](NC(=O)[C@H](C(C)C)N(C)C(=O)N1CCO[C@H](C)C1)C(=O)N1CCC[C@H](N1)C(=O)OCC(C)(C)C2 (atropisomer, axis not shown) [Compound A310] | < 10 | 10 to 100 |  |
| CCn1c(-c2cccnc2[C@H](C)OC)c2c3cc(ccc31)-c1cc(O)cc(c1)C[C@H](NC(=O)[C@H](C(C)C)N(C)C(=O)[C@@H]1CCN(C(=O)OC)C1)C(=O)N1CCC[C@H](N1)C(=O)OCC(C)(C)C2 (atropisomer, axis not shown) [Compound A365] | < 10 |  |  |
| CCn1c(-c2cccnc2[C@H](C)OC)c2c3cc(ccc31)-c1csc(n1)C[C@H](NC(=O)[C@H](C(C)C)N(C)C(=O)N1CCC13COC3)C(=O)N1CCC[C@H](N1)C(=O)OCC(C)(C)C2 (atropisomer, axis not shown) [Compound A560] |  | 10 to 100 | 10 to 100 |
| CCn1c(-c2cccnc2[C@H](C)OC)c2c3cc(ccc31)-c1csc(n1)C[C@H](NC(=O)[C@H](C(C)C)N(C)C(=O)N1CCN(C(=O)C3CC3)CC1)C(=O)N1CCC[C@H](N1)C(=O)OCC(C)(C)C2 (atropisomer, axis not shown) [Compound A607] | < 10 |  |  |
| CCn1c(-c2cccnc2[C@H](C)OC)c2c3cc(ccc31)-c1csc(n1)C[C@H](NC(=O)[C@H](C(C)C)N(C)C(=O)N1CC([C@@H](CO)OC)C1)C(=O)N1CCC[C@H](N1)C(=O)OCC(C)(C)C2 (atropisomer, axis not shown) [Compound A514] | < 10 | 10 to 100 |  |
| CCn1c(-c2cccnc2[C@H](C)OC)c2c3cc(ccc31)-c1csc(n1)C[C@H](NC(=O)[C@H](C(C)C)N(C)C(=O)N1CC(O)C1)C(=O)N1CCC[C@H](N1)C(=O)OCC(C)(C)C2 (atropisomer, axis not shown) [Compound A358] | < 10 | 10 to 100 |  |
| CCn1c(-c2cccnc2[C@H](C)OC)c2c3cc(ccc31)-c1csc(n1)C[C@H](NC(=O)[C@H](C(C)C)N(C)C(=O)N1CC3(CC(N4CC(F)C4)C3)C1)C(=O)N1CCC[C@H](N1)C(=O)OCC(C)(C)C2 (atropisomer, axis not shown) [Compound A457] | < 10 | 10 to 100 |  |
| CCn1c(-c2cccnc2[C@H](C)OC)c2c3cc(ccc31)-c1csc(n1)C[C@H](NC(=O)[C@H](C(C)C)N(C)C(=O)N1CCC[C@H](N(C)C)CC1)C(=O)N1CCC[C@H](N1)C(=O)OCC(C)(C)C2 (atropisomer, axis not shown) [Compound A493] |  | 10 to 100 |  |
